The structures appear in SMILES notation.

Drawing on patent publication EP4772505A1, “COMPOUND FOR DEGRADING ANDROGEN RECEPTOR AND MEDICAL USE THEREOF” (Ubix Therapeutics, Inc., priority 2023, dated 2025), this text covers Dmax for ten compounds.

For the first assay, the target named is T1, Androgen Receptor (AR) (Homo sapiens, UniProt P10275, T878A).
T1 construct: endogenous in cells; host or cells: LNCaP
T1 sequence (P10275 1-920 T878A): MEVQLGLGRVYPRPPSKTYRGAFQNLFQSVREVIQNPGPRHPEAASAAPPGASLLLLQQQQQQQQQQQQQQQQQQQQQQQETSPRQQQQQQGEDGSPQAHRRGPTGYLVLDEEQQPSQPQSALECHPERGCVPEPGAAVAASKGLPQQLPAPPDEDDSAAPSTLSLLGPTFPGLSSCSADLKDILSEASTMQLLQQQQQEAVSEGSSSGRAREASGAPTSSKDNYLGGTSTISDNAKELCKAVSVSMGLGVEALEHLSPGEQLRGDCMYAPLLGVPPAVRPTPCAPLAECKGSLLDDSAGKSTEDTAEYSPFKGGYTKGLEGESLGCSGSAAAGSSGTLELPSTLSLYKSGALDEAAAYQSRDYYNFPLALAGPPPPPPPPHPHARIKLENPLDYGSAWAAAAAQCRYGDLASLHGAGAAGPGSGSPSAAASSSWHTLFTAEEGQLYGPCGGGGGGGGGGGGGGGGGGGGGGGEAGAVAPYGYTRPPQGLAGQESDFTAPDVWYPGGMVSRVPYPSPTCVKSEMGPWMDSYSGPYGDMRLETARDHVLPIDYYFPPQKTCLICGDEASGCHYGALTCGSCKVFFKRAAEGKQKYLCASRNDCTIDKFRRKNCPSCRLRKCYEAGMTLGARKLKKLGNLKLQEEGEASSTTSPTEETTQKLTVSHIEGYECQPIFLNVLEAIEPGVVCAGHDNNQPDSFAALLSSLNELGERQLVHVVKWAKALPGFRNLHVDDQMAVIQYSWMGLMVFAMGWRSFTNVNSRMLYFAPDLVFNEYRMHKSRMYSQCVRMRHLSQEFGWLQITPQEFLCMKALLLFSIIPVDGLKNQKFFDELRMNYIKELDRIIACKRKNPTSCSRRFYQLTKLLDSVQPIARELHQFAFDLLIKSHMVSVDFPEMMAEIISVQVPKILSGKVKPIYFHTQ
Kind of assay: Measurement of AR protein degradation in LNCaP cells by Western blotting. Conditions: 10 nM compound, 20 hours, LNCaP cells; read-out: AR degradation in LNCaP cells (%). In kind it is cell-based. As to the method: The amount of AR protein present in LNCaP or VCaP cells was measured after treating them with the synthesized compound. The amount of AR protein was measured using Western blotting. The protocol for the experiments using LNCaP or VCaP cells was as follows.
[Culture] LNCaP cells were resuspended in RPMI1640 medium + HEPES (Hyclone, SH30255.01), 10% FBS (Hyclone, SV30207.02), and 1% Penicillin-streptomycin (Welgene, LS 202-02). 3 x 10^5 cells/mL were seeded in 12-well plates (1 mL per well) and cultured for 3 days. VCaP cells were resuspended in IMDM MEDIUM (Hyclone, SH30228.01), 20% FBS (Hyclone, SV30207.02), and 1% Penicillin-streptomycin (Welgene, LS 202-02), seeded at 9 x 10^5/mL in 1 mL per 12-well plate, and cultured for 3 days.
[Compound Treatment] 10 µL of 100x stock (e.g., 0.1, 1, 10 µM) compound solution at the final compound treatment concentration (e.g., 0.001, 0.01, 0.1 µM) was added to each well in 1 mL media, and cells were harvested after 20 hours. For DC50 measurement, 100x stock (0.01, 0.1, 1, 10, 100, 1000 µM) compound solutions at the final compound treatment concentration (0.0001, 0.001, 0.01, 0.1, 1, 10 µM) were used.
[Cell lysis] The cell pellet was suspended using 1% SDS lysis buffer (50 mM Tris, 1 mM EDTA, 1% SDS, pH 8.0, 0.5 mM PMSF, 1x Protease/Phosphatase inhibitor Cocktail (Cell Signaling Technology, 5872S)), and sonication (70% AMP, 10 cycles (30 sec ON/59 sec OFF)) was performed. After centrifugation at 4°C and 20,000 g for 20 minutes, the cell lysate was obtained and transferred to a new tube.
[Protein Quantification] A BCA protein assay (SMART™ BCA Protein Assay Kit, iNtRON Biotechnology, 21071) was performed using a 96-well microplate. 5 µL of cell lysate and 5 µL of 1% SDS lysis buffer were added to each well of the 96-well plate, followed by an additional 200 µL of BCA reagent (Reagent A: Reagent B = 50:1). The wells were incubated at 37°C for 30 minutes and cooled to room temperature for 10 minutes. After shaking for 10 seconds, the absorbance was measured at a wavelength of 562 nm. The unknown protein concentration was determined using a BSA standard curve (0, 0.125, 0.25, 0.5, 1, 2 mg/mL). Western blotting samples were prepared by mixing cell lysate, 1% SDS lysis buffer, 4x NuPAGE™ LDS Sample buffer (Invitrogen, NP0008), and 10X NuPAGE™ Sample Reducing Agent (Invitrogen, NP0009) and boiling at 70°C for 10 minutes.
[Electrophoresis] 10 µg of protein sample was loaded into each well of a NuPAGE™ 4 to 12%, Bis-Tris, 1.0 mm Mini Protein Gel, 15-well, 17-well, or 26-well (Invitrogen, NP0323BOX, NP0329BOX, or WG1403BOX) and electrophoresed for 40 minutes using NuPAGE™MES SDS Running Buffer (Invitrogen, NP0002) at 200 V (constant V).
[Transfer] Transfer was performed for 15 or 18 minutes using the electrophoresed gel and the Trans-Blot® Turbo™ Transfer Starter System (Bio-RAD, #17001918, Mini Nitrocellulose) at 1.3 A (constant A) and 25 V (limit V). To confirm protein transfer, 15 mL of Ponceau S solution (Sigma, P7170-1L) was used to stain for 1 minute, and then washed to check the degree of transfer.
[Blocking] The membrane for AR and GAPDH detection was blocked with 5% skim milk/0.2% TBST (Skim milk: BD, 232100/ 20X TBS: Biosesang, TR2008-100-00/ 10% Tween 20 Solution: Bio-RAD, #161-0781) for 45 minutes.
[Antibodies and Detection] Primary AR antibody (Androgen Receptor: CST, 5153S) was mixed with 5% skim milk/0.2% TBST at a ratio of 1:1,000 and reacted at room temperature for 3 hours or at 4°C overnight. Primary GAPDH antibody (CST, 2118S) was mixed with 5% skim milk/0.2% TBST at a ratio of 1:2,000 and reacted at room temperature for 3 hours or at 4°C overnight. Afterwards, TBST (0.2% Tween 20) was used for washing three times every 5 minutes. Secondary antibody to AR antibody, Anti-rabbit IgG, HRP-linked Antibody (CST, 7074S), was mixed with 5% skim milk/0.2% TBST at a ratio of 1:5,000 and reacted at room temperature for 45 minutes. […]
On the technique in general: Immunoblotting shows a protein as a band on a membrane.
With `COc1cc(N2CCC(C(=O)Nc3ccc(OC4CCN(CC5CCN(c6ccc(NC7CCC(=O)NC7=O)cc6F)CC5)CC4)cn3)CC2)ccc1C#N` (centres unmarked) [Example 13, 1-(4-cyano-3-methoxyphenyl)-N-(5-((1-((1-(4-((2,6-dioxopiperidin-3-yl)amino)-2-fluorophenyl)piperidin-4-yl)methyl)piperidin-4-yl)oxy)pyridin-2-yl)piperidine-4-carboxamide], the Dmax at 0.01 µM stood at 91%.

The assay is the same for the next values; noted with them: 100 nM compound, 20 hours, LNCaP cells; read-out: AR degradation in LNCaP cells (%).
Regarding `COc1cc(N2CCC(C(=O)Nc3ccc(OC4CCN(CC5CCN(c6ccc(NC7CCC(=O)NC7=O)cc6F)CC5)CC4)cn3)CC2)ccc1C#N` (centres unmarked) [Example 13, 1-(4-cyano-3-methoxyphenyl)-N-(5-((1-((1-(4-((2,6-dioxopiperidin-3-yl)amino)-2-fluorophenyl)piperidin-4-yl)methyl)piperidin-4-yl)oxy)pyridin-2-yl)piperidine-4-carboxamide], the Dmax at 0.1 µM was 99%.

Still in this assay, the particulars now being: LNCaP, 20 h, read-out: AR degradation in LNCaP cells (%).
`N#Cc1ccc(N2CCC(C(=O)Nc3ccc(OC4CCN(CC5CCN(c6ccc(NC7CCC(=O)NC7=O)cc6F)CC5)CC4)cn3)CC2)cc1C(F)(F)F` (centres unmarked) [Example 1, 1-(4-cyano-3-(trifluoromethyl)phenyl)-N-(5-((1-((1-(4-((2,6-dioxopiperidin-3-yl)amino)-2-fluorophenyl)piperidin-4-yl)methyl)piperidin-4-yl)oxy)pyridin-2-yl)piperidine-4-carboxamide]: the Dmax at 0.01 µM came to 84% and the Dmax at 0.1 µM is 99%.
Turning to `N#Cc1ccc(N2CCC(C(=O)Nc3ccc(OC4CCN(CC5CCN(c6ccc(N[C@H]7CCC(=O)NC7=O)cc6F)CC5)CC4)cn3)CC2)cc1C(F)(F)F` [Example 2, (S)-1-(4-cyano-3-(trifluoromethyl)phenyl)-N-(5-((1-((1-(4-((2,6-dioxopiperidin-3-yl)amino)-2-fluorophenyl)piperidin-4-yl)methyl)piperidin-4-yl)oxy)pyridin-2-yl)piperidine-4-carboxamide], the Dmax at 0.01 µM came out at 86% and the Dmax at 0.1 µM was 99%.
On the same counts, the results for `N#Cc1ccc(N2CCC(C(=O)Nc3ccc(OC4CCN(CC5CCN(c6ccc(N[C@@H]7CCC(=O)NC7=O)cc6F)CC5)CC4)cn3)CC2)cc1C(F)(F)F` [Example 3, (R)-1-(4-cyano-3-(trifluoromethyl)phenyl)-N-(5-((1-((1-(4-((2,6-dioxopiperidin-3-yl)amino)-2-fluorophenyl)piperidin-4-yl)methyl)piperidin-4-yl)oxy)pyridin-2-yl)piperidine-4-carboxamide] are 93% and 99%.
On the same counts, the results for `N#Cc1ccc(N2CCC(C(=O)Nc3ccc(OC4CCN(CC5CCN(c6ccc(NC7CCC(=O)NC7=O)cc6F)CC5)CC4)nn3)CC2)cc1C(F)(F)F` (centres unmarked) [Example 7, 1-(4-cyano-3-(trifluoromethyl)phenyl)-N-(6-((1-((1-(4-((2,6-dioxopiperidin-3-yl)amino)-2-fluorophenyl)piperidin-4-yl)methyl)piperidin-4-yl)oxy)pyridazin-3-yl)piperidine-4-carboxamide] are 79% and 93%.
For `N#Cc1ccc(N2CCC(C(=O)Nc3ccc(OC4CCN(CC5CCN(c6ccc(NC7CCC(=O)NC7=O)cc6F)CC5)CC4)cn3)CC2)cc1Cl` (centres unmarked) [Example 8, 1-(3-chloro-4-cyanophenyl)-N-(5-((1-((1-(4-((2,6-dioxopiperidin-3-yl)amino)-2-fluorophenyl)piperidin-4-yl)methyl)piperidin-4-yl)oxy)pyridin-2-yl)piperidine-4-carboxamide] the same measures were 91% and 98%.
As for `N#Cc1ccc(N2CCC(C(=O)Nc3ccc(OC4CCN(CC5CCN(c6ccc(N[C@H]7CCC(=O)NC7=O)cc6F)CC5)CC4)cn3)CC2)cc1Cl` [Example 9, (S)-1-(3-chloro-4-cyanophenyl)-N-(5-((1-((1-(4-((2,6-dioxopiperidin-3-yl)amino)-2-fluorophenyl)piperidin-4-yl)methyl)piperidin-4-yl)oxy)pyridin-2-yl)piperidine-4-carboxamide], the Dmax at 0.01 µM amounted to 86% and the Dmax at 0.1 µM is 96%.
As to `N#Cc1ccc(N2CCC(C(=O)Nc3ccc(OC4CCN(CC5CCN(c6ccc(N[C@@H]7CCC(=O)NC7=O)cc6F)CC5)CC4)cn3)CC2)cc1Cl` [Example 10, (R)-1-(3-chloro-4-cyanophenyl)-N-(5-((1-((1-(4-((2,6-dioxopiperidin-3-yl)amino)-2-fluorophenyl)piperidin-4-yl)methyl)piperidin-4-yl)oxy)pyridin-2-yl)piperidine-4-carboxamide], the Dmax at 0.01 µM was determined as 90% and the Dmax at 0.1 µM turned out to be 99%.
On the same counts, the results for `N#Cc1ccc(N2CCC(C(=O)Nc3ccc(OC4CCN(CC5CCN(c6ccc(NC7CCC(=O)NC7=O)cc6F)CC5)CC4)cn3)CC2)c(F)c1Cl` (centres unmarked) [Example 12, 1-(3-chloro-4-cyano-2-fluorophenyl)-N-(5-((1-((1-(4-((2,6-dioxopiperidin-3-yl)amino)-2-fluorophenyl)piperidin-4-yl)methyl)piperidin-4-yl)oxy)pyridin-2-yl)piperidine-4-carboxamide] are 88% and 96%.
On the same counts, the results for `N#Cc1ccc(N2CCC(C(=O)Nc3ccc(OC4CCN(CC5CCN(c6ccc(NC7CCC(=O)NC7=O)cc6F)CC5)CC4)nn3)CC2)c(F)c1Cl` (centres unmarked) [Example 15, 1-(3-chloro-4-cyano-2-fluorophenyl)-N-(6-((1-((1-(4-((2,6-dioxopiperidin-3-yl)amino)-2-fluorophenyl)piperidin-4-yl)methyl)piperidin-4-yl)oxy)pyridazin-3-yl)piperidine-4-carboxamide] are 88% and 90%.
